Measured values reported in the supplement of paper PMC10307832.

Key:
Assay in all cases: relative viability (nuclei count vs DMSO), 5 days (fraction); higher = more cells survive
[1] = compound: CC[C@H](CO)Nc1nc(NCc2ccccc2)c2ncn(C(C)C)c2n1 [Seliciclib] + O=C(c1cc(Cc2n[nH]c(=O)c3ccccc23)ccc1F)N1CCN(C(=O)C2CC2)CC1 [Olaparib] (partner 8 µM)
Procedure, shortened: (§1)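 Cells from lung cancer lines were seeded into 1536-well plates and, one day later, dosed by pin tool. Treatments were either a single drug or a fixed dose of an anchor drug with five library-drug doses (not always all listed) in √10 steps. After 5 days, nuclei were stained in a one-step fixation (final 0.05% Triton X-100, 1% formaldehyde, 1 ug/ml Hoechst) and counted on 4× images, and relative viability is the treated-to-vehicle nuclei ratio, as the median of duplicate plates.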

[2] = compound: CC[C@H](CO)Nc1nc(NCc2ccccc2)c2ncn(C(C)C)c2n1 [Seliciclib] + Nc1ncn([C@H]2C[C@H](O)[C@@H](CO)O2)c(=O)n1 [Decitabine] (partner 2 µM)
Procedure, shortened: as §1

[3] = compound: CC[C@H](CO)Nc1nc(NCc2ccccc2)c2ncn(C(C)C)c2n1 [Seliciclib] + NC(=O)Nc1cc(-c2cccc(F)c2)sc1C(=O)N[C@H]1CCCNC1 [AZD7762] (partner 0.2 µM)
Procedure, shortened: as §1

[4] = compound: CC[C@H](CO)Nc1nc(NCc2ccccc2)c2ncn(C(C)C)c2n1 [Seliciclib] + CS(=O)(=O)CCNCc1ccc(-c2ccc3ncnc(Nc4ccc(OCc5cccc(F)c5)c(Cl)c4)c3c2)o1 [Lapatinib] (partner 2 µM)
Procedure, shortened: as §1

| Cell Line | relative viability ([1]; first compound 0.08 µM) | relative viability ([1]; first compound 0.253 µM) | relative viability ([1]; first compound 0.8 µM) | relative viability ([1]; first compound 2.53 µM) | relative viability ([1]; first compound 8 µM) | relative viability ([2]; first compound 0.08 µM) | relative viability ([2]; first compound 0.253 µM) | relative viability ([2]; first compound 0.8 µM) | relative viability ([2]; first compound 2.53 µM) | relative viability ([2]; first compound 8 µM) | relative viability ([3]; first compound 0.08 µM) | relative viability ([3]; first compound 0.253 µM) | relative viability ([3]; first compound 0.8 µM) | relative viability ([3]; first compound 2.53 µM) | relative viability ([3]; first compound 8 µM) | relative viability ([4]; first compound 0.08 µM) | relative viability ([4]; first compound 0.253 µM) | relative viability ([4]; first compound 0.8 µM) | relative viability ([4]; first compound 2.53 µM) | relative viability ([4]; first compound 8 µM) |
| --- | --- | --- | --- | --- | --- | --- | --- | --- | --- | --- | --- | --- | --- | --- | --- | --- | --- | --- | --- | --- |
| NCI-H727 | 0.873 | 0.805 | 0.596 | 0.74 | 0.731 | 0.874 | 0.88 | 0.82 | 0.441 | 0.861 | 0.611 | 0.731 | 0.567 | 0.522 | 0.787 | 0.936 | 0.75 | 0.556 | 0.518 | 0.634 |
| NCI-H838 | 0.729 | 0.765 | 0.762 | 0.773 | 0.635 | 0.457 | 0.508 | 0.437 | 0.411 | 0.381 | 0.922 | 0.966 | 0.877 | 0.939 | 0.861 | 0.967 | 0.92 | 0.926 | 0.868 | 0.362 |
| NCI-H1355 | 0.715 | 0.697 | 0.727 | 0.779 | 0.635 | 0.35 | 0.334 | 0.356 | 0.374 | 0.38 | 0.805 | 0.623 | 0.799 | 0.832 | 0.975 | 0.961 | 0.834 | 0.94 | 0.927 | 0.929 |
| NCI-H1395 | 0.459 | 0.422 | 0.43 |  | 0.448 | 0.729 | 0.621 | 0.681 |  | 0.705 | 0.41 | 0.436 | 0.419 |  | 0.533 | 1.03 | 0.811 | 1.09 | 0.871 | 0.861 |
| NCI-H1437 | 0.641 | 0.665 | 0.595 | 0.607 | 0.431 | 0.557 | 0.563 | 0.566 | 0.477 | 0.56 | 1.06 | 1.19 | 1.17 | 0.999 | 1.08 | 0.824 | 0.949 | 0.882 | 0.777 | 0.618 |
| NCI-H1651 | 0.195 | 0.182 | 0.201 | 0.188 | 0.169 | 0.553 | 0.6 | 0.65 | 0.51 | 0.592 | 0.474 | 0.464 | 0.488 | 0.504 | 0.673 | 0.807 | 0.875 | 0.883 | 0.864 | 0.702 |
| NCI-H1666 | 0.737 | 0.82 | 0.725 | 0.752 | 0.604 | 0.641 | 0.712 | 0.797 | 0.58 | 0.664 | 0.862 | 0.959 | 0.936 | 0.793 | 0.818 | 0.722 | 0.8 | 0.48 | 0.474 | 0.476 |
| NCI-H1734 | 0.58 | 0.513 | 0.595 | 0.536 | 0.521 | 0.503 | 0.405 | 0.509 | 0.518 | 0.496 | 0.533 | 0.43 | 0.584 | 0.561 | 0.642 | 1.12 | 0.974 | 1.08 | 0.955 | 0.945 |
